The record followed here is PMC4728427, “Mechanism of allosteric activation of TMEM16A/ANO1 channels by a commonly used chloride channel blocker” (British Journal of Pharmacology, 2016).

Molecules are shown by their SMILES. Read-outs that look alike come from different tables or passages of the source.

The target of this test is T1, Mouse TMEM16A (Mus musculus, UniProt Q8BHY3).
T1 construct: expressed in transfected cells; host or cells: HEK-293T
T1 sequence (Q8BHY3 1-960): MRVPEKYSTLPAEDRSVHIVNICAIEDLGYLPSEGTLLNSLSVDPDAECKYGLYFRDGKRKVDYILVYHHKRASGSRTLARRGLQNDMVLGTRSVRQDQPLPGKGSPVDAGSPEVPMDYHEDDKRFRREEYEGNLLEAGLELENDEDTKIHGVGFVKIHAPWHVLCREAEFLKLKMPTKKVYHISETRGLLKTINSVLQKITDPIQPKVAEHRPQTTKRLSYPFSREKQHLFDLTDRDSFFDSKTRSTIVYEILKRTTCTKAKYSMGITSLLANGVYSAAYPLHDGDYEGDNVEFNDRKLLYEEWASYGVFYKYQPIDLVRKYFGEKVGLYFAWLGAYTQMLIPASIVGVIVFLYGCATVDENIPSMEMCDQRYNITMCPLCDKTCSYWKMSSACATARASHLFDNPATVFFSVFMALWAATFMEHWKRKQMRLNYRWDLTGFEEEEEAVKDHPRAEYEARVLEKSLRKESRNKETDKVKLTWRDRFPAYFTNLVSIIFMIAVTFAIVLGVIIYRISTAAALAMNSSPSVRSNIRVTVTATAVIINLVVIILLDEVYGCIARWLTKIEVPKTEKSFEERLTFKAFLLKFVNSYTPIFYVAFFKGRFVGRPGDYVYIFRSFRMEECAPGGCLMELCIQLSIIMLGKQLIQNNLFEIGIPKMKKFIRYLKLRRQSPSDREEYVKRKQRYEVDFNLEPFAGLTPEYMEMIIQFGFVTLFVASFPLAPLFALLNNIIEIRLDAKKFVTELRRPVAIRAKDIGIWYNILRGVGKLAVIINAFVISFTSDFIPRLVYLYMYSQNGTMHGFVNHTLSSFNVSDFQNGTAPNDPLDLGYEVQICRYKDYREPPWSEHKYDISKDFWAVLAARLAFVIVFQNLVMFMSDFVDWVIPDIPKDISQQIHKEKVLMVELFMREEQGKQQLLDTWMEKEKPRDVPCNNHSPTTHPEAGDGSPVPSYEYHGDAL
As to the kind of experiment: Whole-cell concentration-jump protocol separating A9C block and activation, 300 nM [Ca2+]i. Type of test: cell-based. As to conditions: for Ki: read-out: K i(0); for I a/I 0 for activation / fractional inhibition (I b/I 0): 30 μM [A9C]ext, +70 mV; for EC50 / IC50: [A9C]ext; for EC50: read-out: EC50 (b) activation; for IC50: read-out: IC50 (a) inhibition. The protocol: TMEM16A currents were measured with the whole‐cell or inside‐out patch configuration of the patch‐clamp technique as detailed in the Supporting Information. The exchange of solutions was achieved by using a local perfusion system consisting of eight tubes of 1.2 mm diameter in which the tip of the patch pipette was inserted. In some experiments, ultra‐rapid (<50 ms) changes in A9C concentration ([A9C]) (‘concentration jumps’) were achieved using a computer‐controlled perfusion system (Warner Instruments, Hamden, CT, USA).
The relationship between [A9C] and TMEM16A current inhibition was obtained by measuring the currents at the end of 250 ms V m steps from +20 to +120 mV in 20 mV increments elicited every 2 s from a holding V m of −70 mV. TMEM16A currents measured in the presence of A9C (I b) were normalized to currents measured in the absence of A9C (I 0) and plotted against [A9C]. The concentration–response curves obtained were fit with the Hill equation of the form: (1) Ib/Io=1/1+A9C/Ki^γ,
where K i is the apparent A9C dissociation constant from the inhibitory site and γ is the coefficient of cooperativity (Hill coefficient).
The dose–response curves for activation by A9C were fitted with a modified Hill equation of the form: (2) Ia/Io=1+Amax−1/1+A9C/Kd^h,
where I a is the current in the presence of A9C, A max is the maximal current activation, K d is the apparent A9C dissociation constant from the activating site and h is the coefficient of cooperativity (Hill coefficient).
The relationships between the K i or K d and V m were fitted with the Woodhull equation (Woodhull, 1973): (3) Kx=Kx0exp−δxzFVm/RT.
The subscript ‘x’ stands for either ‘i’ or ‘d’. Thus, K i(0) or K d(0) are the apparent A9C dissociation constants from the inhibitory or activating site at 0 mV, z is the A9C electric valence (−1), δ i or δ d is the fraction of the V m sensed by A9C when bound to the inhibitory or activating site, F is Faraday's constant, R is the universal gas constant and T is the absolute temperature.
To study the activating effect of extracellular A9C on TMEM16A currents in isolation from A9C‐mediated inhibition, the following stimulation protocol was used. Whole‐cell currents were measured in response to a constant V m of +70 mV and in the presence of 300 nM [Ca^2+]i. Under these recording conditions and in the absence of extracellular A9C, the TMEM16A current remained at a constant amplitude (Figure 5A). When A9C was rapidly applied to the bath solution (concentration jump), the current amplitude rapidly declined before increasing to a new steady‐state level (Figure 5A and 5B). As A9C was removed, a dramatic increase in current was observed followed by a rapid return of the current to the level measured in the absence of A9C (Figure 5A and 5B). […] Rapid washout of A9C led to the fast relief of channel block, while the allosteric activating effect appeared to persist. Thus, the inhibitory effect of A9C was estimated by back‐extrapolating the current amplitude (I b) to the point when the drug was added. The current activation (I a) was measured via back‐extrapolation of the transient current spike observed upon drug washout.
Each cell was exposed to various [A9C]ext, and the extent of blockage at each concentration expressed as I b/I 0. The extent of current activation at each [A9C]ext was assessed as I a/I 0.
To determine if the activating effect of [A9C]ext on the TMEM16A current is V m‐dependent, experiments similar to those described above were performed at constant V m of +10 and +40 mV (Figure 5C). From the average data presented in Figure 5C and Table 2, it can be concluded that both inhibition and activation are V m‐dependent.
As outlined in the previous section, the current inhibition and activation induced by extracellular A9C presented a very similar degree of V m‐dependence. […]

[1] abbreviates: high (154 mM) [Cl−]ext, 300 nM [Ca2+]i.
[2] abbreviates: low (34 mM) [Cl−]ext, 300 nM [Ca2+]i.

For `O=C(O)c1c2ccccc2cc2ccccc12` [A9C, Anthracene‐9‐carboxylic acid], under “300 nM [Ca2+]i (rounded in Discussion)”, the Ki is ~8.4 mM. For the setting “300 nM [Ca2+]i, Woodhull fit”, the δ d is given as 0.66 ± 0.03 and the δ i is reported as 0.68 ± 0.03. The Kd (300 nM [Ca2+]i, extracellular A9C, Woodhull fit, read-out: K d(0) (apparent dissociation constant from activating site at 0 mV)) stood at 8.95 ± 0.378 mM. Further, the Ki (300 nM [Ca2+]i, extracellular A9C, Woodhull fit) worked out at 8.37 ± 0.372 mM. Moreover, under setting [1], the “I a/I 0 for activation” value worked out at 2.0 ± 0.1 and the “fractional inhibition (I b/I 0)” value is 0.70 ± 0.02. Under setting [2], the “I a/I 0 for activation” value came to 8.2 ± 1.1 and the “fractional inhibition (I b/I 0)” value was 0.46 ± 0.06. Besides, where the note is “V m 10 mV, 300 nM [Ca2+]i”, the “h (b) Hill coefficient (activation)” value is 1.1 ± 0.1 (n = 9), the “γ (a) Hill coefficient (inhibition)” value is 0.4 ± 0.1 (n = 9), the EC50 was 5.23 ± 0.582 mM and the IC50 is 4.71 ± 0.478 mM. Besides, under “V m 40 mV, 300 nM [Ca2+]i”, the “h (b) Hill coefficient (activation)” value is on record as 1.2 ± 0.1 (n = 11), the “γ (a) Hill coefficient (inhibition)” value was 0.4 ± 0.1 (n = 11), the EC50 is 1.12 ± 0.126 mM and the IC50 was 0.849 ± 0.14 mM. For the same compound, where the note is “V m 70 mV, 300 nM [Ca2+]i”, the “h (b) Hill coefficient (activation)” value was 1.1 ± 0.1 (n = 11), the “γ (a) Hill coefficient (inhibition)” value is listed as 0.4 ± 0.1 (n = 11), the EC50 was determined as 0.44 ± 0.069 mM and the IC50 was 0.171 ± 0.021 mM. In addition, the “electric distance of activating binding site (δ d)” value (Woodhull analysis, rounded) is ~ 0.6.
